{"source": "patent US20230175029A1", "about": "“ENZYME CASCADES BASED ON SUCROSE SYNTHASE AND PYROPHO[…] CONVERSION OF ADP TO ATP” (RHEINISCH-WE[…]-NISCHE HOCHSCHULE (RWTH) AACHEN, priority 2020, published 2023)", "key": {"EcAGPase [1]": {"target": "T1, EcAGPase (Escherichia coli, UniProt P0A6V1)", "T1 sequence (P0A6V1 whole entry)": "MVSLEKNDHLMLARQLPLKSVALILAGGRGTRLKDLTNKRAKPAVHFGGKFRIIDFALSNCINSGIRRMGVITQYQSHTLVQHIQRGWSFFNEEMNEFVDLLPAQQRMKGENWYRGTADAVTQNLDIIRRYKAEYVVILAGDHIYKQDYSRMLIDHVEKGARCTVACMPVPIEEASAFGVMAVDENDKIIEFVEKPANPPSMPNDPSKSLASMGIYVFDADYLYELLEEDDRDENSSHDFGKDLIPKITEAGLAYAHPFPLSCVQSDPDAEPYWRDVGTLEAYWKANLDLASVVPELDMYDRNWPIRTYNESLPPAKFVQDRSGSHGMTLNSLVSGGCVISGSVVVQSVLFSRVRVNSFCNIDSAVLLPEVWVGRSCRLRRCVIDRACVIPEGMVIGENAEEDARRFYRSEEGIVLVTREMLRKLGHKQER", "conditions": "2.5 mM ADP-Glc, 1 mM Fru-1,6-P2, pH 8, 37° C.", "protocol": "The influence of PPi concentrations on the ATP synthesis activity of the EcAGPase used was investigated.\nThe experiment included 4.35 μg/mL EcAGPase, 2.5 mM ADP-Glc, 10 mM MgCl2, 1 mM Fru-1,6-P2 and PPi, at concentrations ranging from 0.75 mM to 10 mM, and a control reaction without PPi. ATP synthesis was performed in 600 μL of 100 mM HEPES buffer, pH 8 at 37° C. for 12 min. The synthesis was stopped at the respective measurement points with 28 mM SDS (final concentration 7 mM) and the analysis of the nucleotides (ADP-Glc, AMP, ADP, ATP) was performed by multiplex capillary electrophoresis (internal standards (final concentrations): 1 mM para-aminobenzoic acid and 1 mM 4-aminophthalic acid) and the analytes were detected at 254 nm."}, "EcAGPase [2]": {"target": "T1, EcAGPase", "assay": "Effect of Glc-1-P on ATP synthesis activity of EcAGPase", "type": "biochemical, E. coli", "design": "His6; made in house; host or cells: E. coli BL21 (DE3), vector pET22b", "conditions": "3 mM ADP-Glc, 3 mM PPi", "excerpt": "The EcAGPase prefers the ADP-Glc synthesis. Thus, the accumulation of Glc-1-P negatively affects the reaction equilibrium for ATP synthesis. Therefore, the effect of Glc-1-P on the ATP synthesis activity of EcAGPase was investigated."}, "EcAGPase [3]": {"target": "T1, EcAGPase", "assay": "Influence of Fru-1,6-P2 concentration on activity of EcAGPase", "type": "biochemical, E. coli", "design": "His6; made in house; host or cells: E. coli BL21 (DE3), vector pET22b", "conditions": "for EcAGPase activity: 3 mM ADP-Glc, 3 mM PPi, pH 8, 37° C.", "protocol": "Fru-1,6-P2 was used as an activator for EcAGPase. It is Fru-1,6-P2 a relatively expensive compound and its use in the EcAGPase reaction should be reduced as much as possible. Therefore, the activity of EcAGPase was investigated for different Fru-1,6-P2 concentrations to determine a minimum concentration of the activator.\nThe experiment included 3.9 μg/mL EcAGPase, 3 mM ADP-Glc, 3 mM PPi, 10 mM MgCl2 and Fru-1,6-P2 at concentrations ranging from 0.1 mM to 1 mM, as well as a control reaction without Fru-1,6-P2."}}, "data": [{"smiles": "O=P(O)(O)OP(=O)(O)O", "note": "[PPi, inorganic pyrophosphate]", "values": [{"measurement": "PPi concentration at which EcAGPase shows a reduction in specific activity", "setting": "EcAGPase [1]", "result": "above 3 mM"}, {"measurement": "specific activity of EcAGPase", "setting": "EcAGPase [1]; 7 mM PPi", "result": 0.6, "unit": "U/mg"}]}, {"smiles": "O=P(O)(O)O[C@H]1O[C@H](CO)[C@@H](O)[C@H](O)[C@H]1O", "note": "[Glc-1-P, glucose-1-phosphate]", "values": [{"measurement": "activity of the enzyme relative to activity without addition of Glc-1-P", "setting": "EcAGPase [2]; 1 mM Glc-1-P, 0.5 mM Fru-1,6-P2", "result": 71, "unit": "%"}, {"measurement": "IC50", "setting": "EcAGPase [2]; 0.5 mM Fru-1,6-P2, pH 8, 37° C.", "result": 1780, "unit": "µM"}, {"measurement": "residual activity", "setting": "EcAGPase [2]; 5 mM Glc-1-P, 0.5 mM Fru-1,6-P2", "result": 27, "unit": "%"}]}, {"smiles": "O=C(COP(=O)(O)O)[C@@H](O)[C@H](O)[C@H](O)COP(=O)(O)O", "note": "[Fru-1,6-P2, fructose-1,6-bisphosphate]", "values": [{"measurement": "EcAGPase activity", "setting": "EcAGPase [3]; 0.25 mM Fru-1,6-P2", "result": 20, "unit": "U/mg"}, {"measurement": "EcAGPase activity, fold higher than without activator", "setting": "EcAGPase [3]; 0.5 mM Fru-1,6-P2", "result": 12, "unit": "fold"}, {"measurement": "EcAGPase activity", "setting": "EcAGPase [3]; 0.5 mM Fru-1,6-P2", "result": 60, "unit": "U/mg"}]}]}
